Measured values reported in paper PMC5406018, “TCR stimulation strength is inversely associated with establishment of functional brain-resident memory CD8 T cells during persistent viral infection” (PLoS Pathogens, 2017).
No end group written: not given here.

Molecular target: T1, MHC-I D^b (Mus musculus, UniProt P01899)
T1 construct: endogenous in cells; host or cells: RMA/S cells
T1 sequence (P01899 25-362): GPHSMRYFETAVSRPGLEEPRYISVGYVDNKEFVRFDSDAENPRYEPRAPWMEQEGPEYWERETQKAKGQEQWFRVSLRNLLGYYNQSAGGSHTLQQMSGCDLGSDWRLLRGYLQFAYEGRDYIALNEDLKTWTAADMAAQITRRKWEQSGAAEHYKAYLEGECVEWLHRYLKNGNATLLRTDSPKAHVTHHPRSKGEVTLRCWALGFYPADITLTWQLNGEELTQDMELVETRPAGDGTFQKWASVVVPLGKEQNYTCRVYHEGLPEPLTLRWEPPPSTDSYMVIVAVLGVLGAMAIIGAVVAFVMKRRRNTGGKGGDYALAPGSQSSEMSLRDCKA
T1 sequence (P01887 21-119 partner): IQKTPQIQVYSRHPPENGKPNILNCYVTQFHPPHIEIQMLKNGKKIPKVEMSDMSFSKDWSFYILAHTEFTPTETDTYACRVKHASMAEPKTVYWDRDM
Experiment: RMA/S MHC-I stabilization assay
Details: RMA/S cells cultured overnight at 26°C, peptide 1 h at RT then 2 h at 37°C; anti-D^b gMFI, percent of maximum; unit inferred; read-out: MHC-I D^b EC50 (MHC-I binding and stabilization)
Description: Fig 1 Characterizing the T cell response to analogues of a subdominant CD8 T cell epitope. (A) RMA/S cells were cultured overnight at 26°C. Cells were incubated with the indicated dose of peptide for 1 h at RT followed by incubation at 37C for 2 h. […] (B) RMA/S cells were cultured overnight at […] in 100 μM of peptide. Cells were then resuspended in fresh media, incubated at 37C, and sampled hourly for 4 h. […] Nuclear Nur77 (C) and intracellular IFNγ expression (D) shown. […] All data plotted as percent of maximal expression ± SD. […]
For MHC-I stabilization assays, RMA/S cells were cultured overnight at 26°C, resuspended in RPMI containing 10% FBS (10% RPMI) and peptides of different concentrations, then incubated for 1 h at room temperature followed by 2 h at 37°C. […] Each hour for 4 h an aliquot of cells was stained for 30 mins at 4°C with phycoerythrin-conjugated anti-D^b (clone 28-14-8; eBioscience), acquired on a BD FACSCanto10 instrument, and the geometric mean fluorescence intensity (gMFI) determined using FlowJo Software (Tree Star). The percent maximum gMFI was calculated as (gMFI^peptide-gMFI^no peptide)/(gMFI^max- gMFI^no peptide) x 100. EC50 and T1/2 were calculated using Prism software (GraphPad, La Jolla CA).

| Sequence | EC50 [nM] |
| --- | --- |
| QGINNLDNL [TagV] | 175 |
| MGVANLDNL [LT638] | 259 |
